Laboratory results: patent US20160024086A1, “AZAINDOLE RETINOIC ACID RECEPTOR-RELATED ORPHAN RECEPTOR MODULATORS AND USES THEREOF” (INNOV17 LLC, priority 2014, published 2016)

Experiments:
Type in all cases: cell-based
Conditions in all cases: 72 h; human CD4+ T cells under TH17-polarizing conditions, 3 days, supernatant ELISA
IL-17A = test: Human TH17 cytokine inhibition as measured by ELISA (IL-17A)
Procedure: (§1) Human TH17 Cytokine Inhibition as Measured by ELISA
(§2) Peripheral blood mononuclear cells (PBMCs) were sourced from freshly prepared leukocyte enriched plasma (buffy coat) from healthy donors (New York Blood Center). PBMCs were isolated by density gradient centrifugation using Ficoll-Paque™ PLUS (GE Healthcare). Human CD4+ T cells were seeded into 96-well plates (5×10^4 cells/well) and activated with plate-bound anti-human (h)-CD3 antibody and soluble h-aCD28 (both at 1 ug/ml; eBioscience) and differentiated into TH17 cells with 20 ng/mL h-IL-6, 5 ng/mL h-TGF-β1, 10 ng/mL h-IL-23 (eBioscience) and 10 ng/mL IL-1β (Miltenyi Biotec) in serum-free TexMACS Medium (Miltenyi Biotec) supplemented with 1% Penicillin/Streptomycin (Lonza) for 3 days. CD4+ T cells propagated under TH17-polarizing conditions were cultured in the presence or absence of various concentrations of compounds with a final concentration of 0.1% DMSO. Supernatants were collected and stored at −20° C. until assayed for IL-17A, IL-17F and IL-21 levels by “Ready-Set-Go” ELISA kits (eBioscience) as per manufacturer's instructions. Endpoint absorbance was read at 450 nm using a microplate reader (Perkin Elmer).

IL-17F = test: Human TH17 cytokine inhibition as measured by ELISA (IL-17F)
Procedure: as §1, §2

IL-21 = test: Human TH17 cytokine inhibition as measured by ELISA (IL-21)
Procedure: as §1, §2

IL-22 = test: Human TH17 cytokine inhibition as measured by ELISA (IL-22)

Measured: IC50

O=C(CCc1ccccc1)N1CCC(Cn2ccc3nc(-c4cn[nH]c4)ccc32)CC1 [Example 3, 1-(4-((5-(1H-pyrazol-4-yl)-1H-pyrrolo[3,2-b]pyridin-1-yl)methyl)piperidin-1-yl)-3-phenylpropan-1-one]
< 10 µM: IL-17A | IL-17F | IL-21

O=S(=O)(c1ccccc1)N1CCC(Cn2ccc3nc(-c4cn[nH]c4)ccc32)CC1 [Example 30, 1-((1-(phenylsulfonyl)piperidin-4-yl)methyl)-5-(1H-pyrazol-4-yl)-1H-pyrrolo[3,2-b]pyridine]
< 10 µM: all assays above

CC1(C)CC(Cn2ccc3nc(-c4cn[nH]c4)ccc32)CN1C(=O)c1ccccc1 (stereo not drawn) [Example 19, (4-((5-(1H-pyrazol-4-yl)-1H-pyrrolo[3,2-b]pyridin-1-yl)methyl)-2,2-dimethylpyrrolidin-1-yl)(phenyl)methanone]
< 10 µM: IL-17A | IL-17F | IL-21

O=C(Cc1ccccc1)N1CCC(Cn2ccc3nc(-c4cn[nH]c4)ccc32)CC1 [Example 7, 1-(4-((5-(1H-pyrazol-4-yl)-1H-pyrrolo[3,2-b]pyridin-1-yl)methyl)piperidin-1-yl)-2-phenylethanone]
< 10 µM: IL-17A | IL-17F | IL-21

O=S(=O)(Cc1ccccc1)N1CCC(Cn2ccc3nc(-c4cn[nH]c4)ccc32)CC1 [Example 32, 1-((1-(benzylsulfonyl)piperidin-4-yl)methyl)-5-(1H-pyrazol-4-yl)-1H-pyrrolo[3,2-b]pyridine]
< 10 µM: all assays above

C[C@@H]1C[C@H](Cn2ccc3nc(-c4cn[nH]c4)ccc32)CN1C(=O)CCc1ccccc1 (racemic) [Example 41, rac.-cis-1-(4-((5-(1H-pyrazol-4-yl)-1H-pyrrolo[3,2-b]pyridin-1-yl)methyl)-2-methylpyrrolidin-1-yl)-3-phenylpropan-1-one]
< 10 µM: IL-17A | IL-17F | IL-21

C[C@H]1C[C@H](Cn2ccc3nc(-c4cn[nH]c4)ccc32)CN1C(=O)CCc1ccccc1 (racemic) [Example 40, rac.-trans-1-(4-((5-(1H-pyrazol-4-yl)-1H-pyrrolo[3,2-b]pyridin-1-yl)methyl)-2-methylpyrrolidin-1-yl)-3-phenylpropan-1-one]
< 10 µM: all assays above

O=C(CC1CCCCC1)N1CCC(Cn2ccc3nc(-c4cn[nH]c4)ccc32)CC1 [Example 4, 1-(4-((5-(1H-pyrazol-4-yl)-1H-pyrrolo[3,2-b]pyridin-1-yl)methyl)piperidin-1-yl)-2-cyclohexylethanone]
< 10 µM: IL-17A | IL-17F | IL-21
